The values that follow come from PMC2865582 (Journal of medicinal chemistry, 2010).

The term inhibition denotes the share of the control response that was lost under treatment.

Where only a bound is given, the exact number is not on record here.

For test [1], the target named is T1, GV sPLA2 (Homo sapiens, UniProt P39877).
T1 sequence (P39877 21-138): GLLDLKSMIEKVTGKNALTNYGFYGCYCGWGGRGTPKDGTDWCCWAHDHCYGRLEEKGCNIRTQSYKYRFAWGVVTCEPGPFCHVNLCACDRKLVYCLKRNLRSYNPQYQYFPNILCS
Kind of test: Mixed micelle-based. Format: biochemical. To be noted: lower bound from % inhibition at 0.091 mole fraction.

The target in test [2] is T2, GIVA cPLA2 (Homo sapiens, UniProt P47712).
T2 sequence (P47712 1-749): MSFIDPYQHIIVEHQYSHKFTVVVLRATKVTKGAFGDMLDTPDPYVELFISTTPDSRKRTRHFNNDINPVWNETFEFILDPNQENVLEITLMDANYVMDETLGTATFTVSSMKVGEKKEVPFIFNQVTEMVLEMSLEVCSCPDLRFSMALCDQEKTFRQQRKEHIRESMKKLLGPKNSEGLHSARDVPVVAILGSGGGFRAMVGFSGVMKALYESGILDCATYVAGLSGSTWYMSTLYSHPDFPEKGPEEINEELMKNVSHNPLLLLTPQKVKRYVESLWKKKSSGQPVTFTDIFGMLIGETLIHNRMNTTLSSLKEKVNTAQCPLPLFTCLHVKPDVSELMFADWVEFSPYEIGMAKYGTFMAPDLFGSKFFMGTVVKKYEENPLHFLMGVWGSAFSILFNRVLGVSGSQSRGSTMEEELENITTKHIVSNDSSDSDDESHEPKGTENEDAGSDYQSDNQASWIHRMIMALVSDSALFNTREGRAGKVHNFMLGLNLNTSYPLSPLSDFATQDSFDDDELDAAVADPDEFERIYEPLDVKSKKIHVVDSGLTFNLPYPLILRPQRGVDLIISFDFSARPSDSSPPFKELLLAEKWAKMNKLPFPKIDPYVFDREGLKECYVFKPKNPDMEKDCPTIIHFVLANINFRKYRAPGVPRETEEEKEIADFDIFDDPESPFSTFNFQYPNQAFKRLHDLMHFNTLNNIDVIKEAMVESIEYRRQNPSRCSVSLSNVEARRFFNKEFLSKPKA
The test is described as follows: Mixed micelle-based. Format: biochemical. To be noted: for times more potent for GVIA iPLA2 than for GIVA cPLA2: ratio of XI(50) values; for inhibition at 0.091 mole fraction: read-out: GIVA cPLA2 % Inhibition.

Test [3] deals with T3, human GVIA iPLA2 (Homo sapiens, UniProt O60733).
T3 sequence (O60733 1-806): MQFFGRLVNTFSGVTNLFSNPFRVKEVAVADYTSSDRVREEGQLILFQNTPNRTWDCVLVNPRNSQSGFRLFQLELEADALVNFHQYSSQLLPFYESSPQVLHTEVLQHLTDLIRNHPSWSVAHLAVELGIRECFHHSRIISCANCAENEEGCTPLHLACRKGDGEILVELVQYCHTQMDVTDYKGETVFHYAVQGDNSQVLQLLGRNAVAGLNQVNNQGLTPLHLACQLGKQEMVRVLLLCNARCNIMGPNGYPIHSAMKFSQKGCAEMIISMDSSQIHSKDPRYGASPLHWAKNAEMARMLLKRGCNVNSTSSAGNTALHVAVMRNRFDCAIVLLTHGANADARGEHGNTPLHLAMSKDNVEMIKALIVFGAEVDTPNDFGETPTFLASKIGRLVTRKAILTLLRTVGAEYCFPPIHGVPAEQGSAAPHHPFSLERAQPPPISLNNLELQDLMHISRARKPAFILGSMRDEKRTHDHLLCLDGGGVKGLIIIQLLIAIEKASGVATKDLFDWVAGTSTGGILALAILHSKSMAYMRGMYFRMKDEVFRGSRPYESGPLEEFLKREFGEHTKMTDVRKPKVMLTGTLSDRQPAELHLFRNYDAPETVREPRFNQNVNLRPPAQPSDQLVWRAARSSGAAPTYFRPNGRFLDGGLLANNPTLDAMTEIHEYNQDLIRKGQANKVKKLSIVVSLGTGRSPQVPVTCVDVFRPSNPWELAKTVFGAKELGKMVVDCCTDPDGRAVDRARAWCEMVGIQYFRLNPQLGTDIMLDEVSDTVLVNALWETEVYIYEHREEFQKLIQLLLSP
The settings on record: previous mixed micelle assay with DPPC substrate; cited from earlier work.

Test [4] concerns experimental autoimmune encephalomyelitis. The settings on record: animal model of multiple sclerosis; cited from earlier work.

Turning to `O=C(CCCCc1ccc2ccccc2c1)C(F)(F)C(F)(F)C(F)(F)F` [12i, 1,1,1,2,2,3,3-Heptafluoro-8-(naphthalen-2-yl)octan-4-one], the “times more potent for GVIA iPLA2 than for GV sPLA2” value (“times more potent … for GV sPLA2” for short) in test [1] is “at least 90 times”. Further, the “times more potent for GVIA iPLA2 than for GIVA cPLA2” value in test [2] was “at least 90 times”.

As for `O=C(CCCCCc1ccccc1)C(F)(F)C(F)(F)C(F)(F)F` [6b, 1,1,1,2,2,3,3-Heptafluoro-9-phenylnonan-4-one], the inhibition at 0.091 mole fraction in test [2] is under 25%.

With `O=C(CCCCc1ccc2ccccc2c1)C(F)(F)F` [12g, 1,1,1-Trifluoro-6-(naphthalen-2-yl)hexan-2-one], the “times more potent … for GV sPLA2” value in test [1] was over 455 times. The “GIVA cPLA2 XI(50)” value in test [2] (mole fraction of inhibitor in total substrate interface giving 50% inhibition) was determined as 0.039 ± 0.001 mole fraction.

On to “1,1,1,2,2,3,3,5-octafluoro-7-phenyloctan-4-one [compound 25]”, for which the “times more potent … for GV sPLA2” value in test [1] was over 180 times. The “times more potent for GVIA iPLA2 than for GIVA cPLA2” value in test [2] is reported as 76 times.

Take `O=C(CCCCc1ccccc1)C(F)(F)C(F)(F)F` [compound 2, 1,1,1,2,2-pentafluoro-7-phenylheptan-3-one]: in test [3], the “GVIA iPLA2 XI(50) determined previously” value was 0.0073 mole fraction. For the same compound, in test [4], the “therapeutic effect in experimental autoimmune encephalomyelitis” value is recorded as “beneficial therapeutic effect”. The inhibition at 0.091 mole fraction in test [2] is under 25%.
